# Laboratory results published in paper PMC10844371 (Diabetologia, 2023).
# Columns and labels:
# [1] = system: isolated mouse pancreatic islets; assay: Insulin secretion in isolated mouse islets (RIA); type: cell-based
# Experimental: (§1) Mouse islets were used acutely, except for studies with PTX, wherein islets were treated overnight with the toxin. Human islets were maintained in culture for up to 48 h in RPMI medium containing 10% (vol./vol.) FCS, 1% (vol./vol.) penicillin/streptomycin and 5 mmol/l glucose. Experiments were conducted as previously described. Islets were incubated in 0.3 ml EC1 or EC2 media (ESM Table 2) supplemented with glucose and other reagents as indicated.
# (§2) Insulin and somatostatin were determined by RIA (Millipore and Diasource ImmunoAssays, respectively) as described previously. In these experiments, rates of release are expressed as % of contents unless otherwise indicated.
# [2] = system: isolated mouse pancreatic islets; type: cell-based
# Experimental: Experiments were conducted as previously described. Islets were incubated in 0.3 ml EC1 or EC2 media (ESM Table 2) supplemented with glucose and other reagents as indicated.
# (§3) All data are reported, unless otherwise stated, as mean values ± SEM for the indicated number of experiments using islets from multiple mice. For hormone release studies, islets were isolated and pooled from 4–16 mice. These islets were then subdivided into groups of 12–20 size-matched islets. Each unique set of islets counted as an experiment with the experiments repeated on 2–4 days. Similarly, each unique group of human islets was treated as an experiment. […] In the Ca^2+ imaging and granule docking experiment, each cell represents an experiment making sure that cells from multiple donors/animals were used. For the in vivo experiments and the perfused pancreas, each mouse count represents an experiment. For two groupings, a t test was conducted. For multiple comparisons, one-way ANOVA was conducted. All statistical tests were performed using Graphpad Prism (version 9.1.0; graphpad.com).
# [3] = system: isolated mouse pancreatic islets; assay: Somatostatin secretion in isolated mouse islets (RIA); type: cell-based; details: 1 mmol/l glucose, groups of 20 islets
# Experimental: as §1, with “indicated. Glucagon was determined by ELISA (Mercodia).” for “indicated.”
# as §2
# [4] = system: PKA activity in alpha cells; assay: PKA activity measurements (AKAR3) in alpha cells in intact islets; type: cell-based, mouse
# Experimental: PKA activity was measured using AKAR3 as previously described. The cells were continuously superfused at a rate of 60 μl/min with EC4 (ESM Table 2).
# [5] = system: human pancreatic islets; assay: Glucagon secretion in human islets (ELISA); type: cell-based; details: human islets, 10 pmol/l, 1 mmol/l glucose
# Experimental: Human pancreatic islets were isolated (with ethical approval and clinical consent) as previously described. Islets from the pancreases of 18 healthy donors and five donors with type 2 diabetes were used (see electronic supplementary material [ESM] Table 1; ESM Human islets checklist).
# as §1, with “indicated. Glucagon was determined by ELISA (Mercodia).” for “indicated.”
# as §3, with “graphpad.com). It was ascertained that the data were normally distributed.” for “graphpad.com).”
# [6] = system: mouse alpha cells; assay: TIRF imaging of docked secretory granules in mouse alpha cells; type: cell-based
# Experimental: Cells were imaged using total internal reflection fluorescence (TIRF) microscopy (AxioObserver Z1 with a ×100/1.45 objective [Carl Zeiss] and a diode-pumped solid state laser at 491 nm). For these measurements, EC1 was used (ESM Table 2). Images from cells infected with preproglucagon promoter (PPPG)-neuropeptide Y (NPY)-enhanced green fluorescent protein (EGFP) virus were recorded using an electron-multiplying charge-coupled device camera (Photometrics Evolve) using ZEN blue. Single images of cells were acquired to measure the number of docked granules. Incoming and outgoing granules during visiting, docking and undocking were determined from multiple frame movies as described previously. Candidate docking or undocking events were found manually as granules that approached the TIRF field with an axial component and became laterally confined for at least two frames. We defined docking as granules that remained confined for at least 1 min. Visitors were those granules that remained for <1 min after appearing at the plasma membrane. Undocking was defined as slow movement of a previously docked granule away from its docking site. Granule density was calculated using a script that used the built-in ‘find maxima’ function in ImageJ (version 1.53c; http://rsbweb.nih.gov/ij) for spot detection.
# [7] = system: P/Q-type Ca^2+ channels; assay: [Ca2+]i imaging of depolarisation-evoked Ca2+ entry in alpha cells (Gcg-GCaMP6f islets); type: cell-based, mouse; details: in the presence of GLP-1(9–36) 10 pmol/l; p=0.26
# Experimental: For live-cell cytoplasmic free Ca^2+ concentration ([Ca^2+]i) imaging experiments, Gcg-GCaMP6f islets were immobilised to a poly-L-lysine-coated coverslip fixed in a custom-built imaging chamber filled with EC3 (ESM Table 2). [Ca^2+]i was measured in islets from mice expressing GCaMP6f in alpha cells. [Ca^2+]i imaging experiments were then performed using an inverted LSM 510 confocal microscope (Zeiss) controlled with ZEN Black (Zeiss), using a ×40/1.3 oil immersion objective. Time-lapse images were collected every 0.98 s with a frame size of 256×256 pixels, with the bath solution (EC3) perfused at a rate of 0.4 ml/min and heated to 37°C. GCaMP6f was excited by an argon laser (488 nm) and emission was collected at 510 nm.
# [Ca^2+]i imaging videos were analysed using the Fiji imaging processing package. The mean fluorescence (F) of each region of interest was normalised to baseline signal (F0) and expressed as F/F0 before exporting into ClampFit (version 10.7; Molecular Devices, CA, USA), where baseline was corrected and AUC was calculated.
compound,measurement,setting,value
CC[C@H](C)[C@H](NC(=O)[C@H](Cc1ccccc1)NC(=O)[C@H](CCC(=O)O)NC(=O)[C@H](CCCCN)NC(=O)[C@H](C)NC(=O)[C@H](C)NC(=O)[C@H](CCC(N)=O)NC(=O)CNC(=O)[C@H](CCC(=O)O)NC(=O)[C@H](CC(C)C)NC(=O)[C@H](Cc1ccc(O)cc1)NC(=O)[C@H](CO)NC(=O)[C@H](CO)NC(=O)[C@@H](NC(=O)[C@H](CC(=O)O)NC(=O)[C@H](CO)NC(=O)[C@@H](NC(=O)[C@H](Cc1ccccc1)NC(=O)[C@@H](NC(=O)CNC(=O)[C@H](CCC(=O)O)NC(=O)[C@H](C)NC(=O)[C@@H](N)Cc1c[nH]cn1)[C@@H](C)O)[C@@H](C)O)C(C)C)C(=O)N[C@@H](C)C(=O)N[C@@H](Cc1c[nH]c2ccccc12)C(=O)N[C@@H](CC(C)C)C(=O)N[C@H](C(=O)N[C@@H](CCCCN)C(=O)NCC(=O)N[C@@H](CCCNC(=N)N)C(N)=O)C(C)C [GLP-1(7–36)],insulinotropic effect in Glp1r−/− mouse islets,[1]; Glp1r−/− islets,lost
same,concentrations at which stimulation of insulin secretion attained statistical significance,"[1]; mouse islets, 1 mmol/l glucose",≥ 100 pmol/L
same,inhibitory effect on glucagon secretion in Glp1r−/− mouse islets,"[2]; 10 pmol/l, Glp1r−/− islets, 1 mmol/l glucose",persisted
same,inhibitory effect on glucagon secretion in Glp1r−/− islets after PTX,"[2]; 10 pmol/l, Glp1r−/− islets, PTX pretreatment",abolished
same,change of the inhibitory effect on glucagon secretion by exendin(9–39),"[2]; 10 pmol/l, exendin(9–39) 1 μmol/l",reduced
same,glucagonostatic effect in the presence of exendin(9–39),"[2]; 10 pmol/l, exendin(9–39) 1 μmol/l, 1 mmol/l glucose",retained their glucagonostatic effect
same,glucagonostatic effect in the presence of the PKA inhibitor 8-Br-Rp-cAMPS,"[2]; 8-Br-Rp-cAMPS 10 μmol/l, 1 mmol/l glucose",not affected
same,"glucagonostatic effect remaining with exendin(9–39), in the presence of sitagliptin",[2]; exendin(9–39) plus DPP-4 inhibitor sitagliptin,abolished
same,inhibition of glucagon secretion,"[2]; islets cultured overnight without PTX, 1 mmol/l glucose",~ 50%
same,inhibitory effect on glucagon secretion after PTX pretreatment,"[2]; overnight PTX 100 ng/ml, 1 mmol/l glucose",unaffected
same,IC50,"[2]; read-out: half-maximal inhibitory concentration (IC50) for inhibition of glucagon secretion, isolated mouse islets, 1 mmol/l glucose, groups of 12 islets from 4–6 mice, glucagon ELISA",2.5 pM
same,concentration at which stimulation of somatostatin secretion was already detectable,[3],10 pmol/L
same,effect on PKA activity in alpha cells,[4]; 10 pmol/l,no inhibitory effect
same,effect on cAMP/PKA activity in alpha cells,"[4]; 10,000 pmol/l",increased cAMP/PKA activity
same,inhibition of glucagon secretion,[5],~ 50%
CCCOc1ccc(Br)cc1-c1cc(-c2ccc(Cl)cc2)[nH]c1-c1ccncc1 [L-168049],effect on the glucagonostatic effect of GLP-1(9–36),"[2]; mouse islets, L-168049 100 nmol/l, GLP-1(9–36) 10 pmol/l",abolished
CC1=NS(=O)(=O)c2cc(Cl)ccc2N1 [diazoxide],reduction of submembrane granule density,[6]; 200 μmol/l,~ 40%
CC(C)NCC(O)c1ccc(O)c(O)c1 (stereo not drawn) [isoprenaline],stimulation of glucagon secretion,"[2]; mouse islets, 1 mmol/l glucose",> 2.2 fold
ω-agatoxin,reduction of the number of docked granules,[6]; 200 nmol/l,to the same extent as GLP-1(9–36)
same,effect on glucagon secretion,"[2]; 200 nmol/l, 1 mmol/l glucose",inhibited glucagon secretion nearly as strongly as GLP-1(9–36)
same,further change of Ca2+ entry on addition in the presence of GLP-1(9–36),[7],−8±4%
